Test results reported in patent publication US20220064672A1, “ENGINEERED ONCOLYTIC VIRUSES EXPRESSING PD-L1 INHIBITORS AND USES THEREOF” (priority 2020, published 2022).
Read-outs that look alike come from different tables or passages of the source.

T1: H-2D^b (Mus musculus, UniProt P01899)
T1 sequence (P01899 25-362): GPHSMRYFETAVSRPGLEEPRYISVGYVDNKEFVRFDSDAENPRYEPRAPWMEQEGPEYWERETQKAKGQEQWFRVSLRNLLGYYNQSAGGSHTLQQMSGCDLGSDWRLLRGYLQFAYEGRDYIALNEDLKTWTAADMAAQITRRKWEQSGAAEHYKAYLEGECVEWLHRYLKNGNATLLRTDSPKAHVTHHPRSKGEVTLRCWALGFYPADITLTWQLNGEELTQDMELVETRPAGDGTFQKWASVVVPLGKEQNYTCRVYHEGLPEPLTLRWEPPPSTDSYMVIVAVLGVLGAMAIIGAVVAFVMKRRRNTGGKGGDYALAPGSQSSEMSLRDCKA
T1 sequence (P01887 21-119 partner): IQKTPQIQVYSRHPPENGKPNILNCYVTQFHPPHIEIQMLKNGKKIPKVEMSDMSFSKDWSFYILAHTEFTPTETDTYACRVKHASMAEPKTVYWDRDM

T2: H-2K^b (Mus musculus, UniProt P01901)
T2 sequence (P01901 22-369): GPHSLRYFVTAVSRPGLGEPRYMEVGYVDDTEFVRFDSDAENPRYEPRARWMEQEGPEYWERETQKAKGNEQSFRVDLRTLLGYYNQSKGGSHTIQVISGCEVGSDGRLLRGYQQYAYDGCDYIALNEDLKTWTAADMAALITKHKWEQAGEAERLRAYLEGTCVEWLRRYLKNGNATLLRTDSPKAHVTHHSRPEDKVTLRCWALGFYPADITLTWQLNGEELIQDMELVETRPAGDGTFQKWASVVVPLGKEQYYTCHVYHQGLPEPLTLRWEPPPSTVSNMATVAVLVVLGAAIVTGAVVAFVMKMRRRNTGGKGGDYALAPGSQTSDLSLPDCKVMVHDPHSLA
T2 sequence (P01887 21-119 partner): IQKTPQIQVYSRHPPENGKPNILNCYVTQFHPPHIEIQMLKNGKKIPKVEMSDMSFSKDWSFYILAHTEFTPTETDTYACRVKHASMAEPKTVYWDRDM


Assays:
H-2D^b = target: T1, H-2D^b; conditions: MHC allele H-2D^b, cited from earlier work
H-2K^b = target: T2, H-2K^b; conditions: MHC allele H-2K^b, cited from earlier work
[1] = target: PD-L1 protein (Abcam, ab130039) (UniProt Q9EP73); assay: competitive ELISA: PD-L1-coated plate, displacement of mouse PD-1-biotin
PD-L1 protein (Abcam, ab130039) (UniProt Q9EP73), sequence (Q9EP73 19-238 limits assumed): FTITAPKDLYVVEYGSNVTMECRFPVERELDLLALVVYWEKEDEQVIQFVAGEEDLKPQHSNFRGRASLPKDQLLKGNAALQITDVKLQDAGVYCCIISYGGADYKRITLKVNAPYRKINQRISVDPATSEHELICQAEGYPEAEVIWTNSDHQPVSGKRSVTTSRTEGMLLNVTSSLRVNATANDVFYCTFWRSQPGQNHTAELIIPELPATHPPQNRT

[2] = system: K562/PD-L1, U251/PD-L1, H226/PD-L1 target cells; assay: ADCC assay (Jurkat effector cells); type: cell-based, human; conditions: any of the PD-L1-expressed target cell lines
Method: ADCC assay: Purified ihPDL1 was analyzed with ADCC kit according to the manufacturer's instruction (Promega, Madison, Wis.).

PD-L1 [3] = target: PD-L1 (Homo sapiens, UniProt Q9NZQ7); assay: Surface plasmon resonance (SPR)-binding assay; conditions: immobilized PD-L1-His tag protein
PD-L1 (Homo sapiens, UniProt Q9NZQ7), sequence (Q9NZQ7 19-290): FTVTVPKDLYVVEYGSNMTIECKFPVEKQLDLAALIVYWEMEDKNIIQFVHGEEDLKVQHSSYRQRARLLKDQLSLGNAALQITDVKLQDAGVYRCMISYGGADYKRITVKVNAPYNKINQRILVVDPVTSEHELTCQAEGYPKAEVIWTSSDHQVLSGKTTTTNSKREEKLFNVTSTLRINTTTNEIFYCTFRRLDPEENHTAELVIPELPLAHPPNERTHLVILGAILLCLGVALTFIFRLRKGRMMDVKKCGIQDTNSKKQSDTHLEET
Method: Surface plasmon resonance (SPR)-binding assays: The assays were carried out at 25° C. using a Biacore T100 (USC NanoBiophysics Center). CMS sensor chips were activated by a 7 min injection of a 1:1 mixture of N-hydroxysuccinimide and 1-ethyl-3-(3-dimethylaminopropyl) carbodiimide hydrochloride at a flow rate of 10 μL/min. The PD-L1-His tag protein was prepared at a concentration of 10 μg/mL in 10 mM acetate buffer, pH 4.0, and immobilized to the sensor chips by amine linkage, with the typical immobilization levels being 100 response units. For blocking sensor chips, 70 μL of 1M ethanolamine-HCl buffer, pH 8.5, was injected and the chips were further washed with 10 μL of 10 mM glycine-HCl buffer, pH 1.5. For analyzing the binding and equilibrium affinity of ihPDL1 or a-PD-L1 antibody (biolegend, cat 329702), 5 serial dilutions of ihPDL1 starting from 200 μg/mL, or 6 serial dilutions of α-PD-L1 antibody starting from 100 μg/mL were injected at a flow rate of 30 μL/min over the sensor chips coupled with PD-L1 protein. The data sets were analyzed using a model for 1:1 binding.

PD-L1^+ tumor cells = target: T3, PD-L1^+ tumor cells (Homo sapiens, UniProt Q9NZQ7); type: cell-based; conditions: PD-L1-transduced 293T or K562, IFN-γ pre-stimulated H226 or U251
T3 construct: endogenous in cells; host or cells: IFN-γ-stimulated U251 or H226
T3 sequence (Q9NZQ7 19-290): as above

[4] = system: T-cells from healthy PBMCs with allogeneic mature DCs; type: cell-based, human; conditions: purified ihPDL1 at 0.01 μg/mL, 0.1 μg/mL, or 1 μg/mL
PD-1/PD-L1 interaction = target: T4, PD-1/PD-L1 interaction (Homo sapiens, UniProt Q9NZQ7); type: binding; conditions: purified ihPDL1 at the tested concentrations
T4 construct: purchased BPS Bioscience
T4 sequence (Q9NZQ7 19-238 limits assumed): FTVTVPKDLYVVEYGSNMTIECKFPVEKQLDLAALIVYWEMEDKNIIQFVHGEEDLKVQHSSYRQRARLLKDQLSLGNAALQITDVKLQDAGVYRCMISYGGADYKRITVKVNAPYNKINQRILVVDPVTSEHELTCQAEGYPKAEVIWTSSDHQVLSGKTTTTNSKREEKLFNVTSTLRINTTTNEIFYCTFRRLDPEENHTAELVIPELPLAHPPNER

[5] = target: PD-L1 protein (Abcam, ab130039) (UniProt Q9EP73 19-238); assay: competitive ELISA: PD-L1-coated plate, displacement of mouse PD-1-biotin
PD-L1 protein (Abcam, ab130039) (UniProt Q9EP73 19-238), sequence (Q9EP73 19-238 limits assumed): as the sequence (Q9EP73 19-238 limits assumed) above

[6] = target: T5, PD-L1 on MC38 tumor cells (Mus musculus, UniProt Q9EP73); type: cell-based
T5 construct: endogenous in cells; host or cells: MC38 (wild type, IFN-γ stimulated, or PD-L1 shRNA knock-down as negative control)
T5 sequence (Q9EP73 19-290): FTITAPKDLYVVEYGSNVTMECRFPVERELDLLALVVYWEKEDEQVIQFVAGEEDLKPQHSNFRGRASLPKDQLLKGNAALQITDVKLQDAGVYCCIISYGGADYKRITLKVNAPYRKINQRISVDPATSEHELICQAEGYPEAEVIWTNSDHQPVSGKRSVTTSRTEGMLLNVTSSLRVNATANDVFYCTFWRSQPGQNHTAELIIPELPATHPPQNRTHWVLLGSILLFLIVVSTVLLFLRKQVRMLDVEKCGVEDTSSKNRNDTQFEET

PD-1+ CD8+ T cells = conditions: purified iPDL1 in comparison to control IgG
Description: (FIG. 7I) PD-1+ CD8+ T cells isolated from VV-treated MC38 tumors were cocultured with MC38 cells in the presence of purified iPDL1 or IgG. IFN-γ+ frequencies of PD-1+ T cells were shown from one of two independent experiments.

PD-L1 [7] = target: T6, PD-L1 (Mus musculus, UniProt Q9EP73); type: in vivo; conditions: MC38, untreated distant tumors
T6 construct: from tissue; host or cells: single-cell suspensions of treated and distant MC38 tumours from C57BL/6 mice
T6 sequence (Q9EP73 19-290): as above

[8] = mutant peptide, read-out: IC50 (mutant)
[9] = wild type peptide, read-out: IC50 (Wild Type)

Molecule | IC50 (H-2D^b; [8]) [nM] | IC50 (H-2D^b; [9]) [nM] | other results
(S/I)MTQHLEPI [Pep7] | 78 | 29 | –
AALLNSAGL [Pepl, AALLNSA(G/V)L] | 3 | 52 | –
AQL(P/A)NDVVL [Pep2] | 9 | 100 | –
ASMTN(R/M)ELM [Pep4] | 2 | 3 | –
FMACNLLLV [Pep11, FM(A/S)CNLLLV] | 79 | 24 | –
MAPIDHTAM [Pep3, MAPIDHT(A/T)M] | 30 | 102 | –
MGGMNRRPI [Pep10, MG(G/V)MNRRPI] | 77 | 841 | –
SAIRSYQDV [Pep8, SAIRSYQ(D/Y)V] | 35 | 755 | –
SIIVFNLV [Pep5, SIIVFNL(V/L)] | – | – | IC50 (H-2K^b; [8]): 8 nM; IC50 (H-2K^b; [9]): 34 nM
SSP(D/Y)SLHYL [Pep6] | 211 | 685 | –
VSPVNDVDV [Pep9, VSPVND(V/L)DV] | 44 | 18 | –
anti-PD-L1 antibody control (Biolegend, 124301) | – | – | IC50 [1]: 4.53 nM
ihPDL1: soluble human PD-1 (extracellular) - IgG1 Fc fusion protein, human PD-L1 inhibitor, SEQ ID NO:52 | – | – | concentration that significantly enhanced luc production in the Jurkat effector cells [2]: ≤ 10 ng/mL; binding to PD-L1 (SPR) (PD-L1 [3]): specifically bind to PD-L1; binding of purified ihPDL1 to PD-L1^+ tumor cells (PD-L1^+ tumor cells): bound to PD-L1^+ tumor cells; T cell activation (IFN-γ level) in MLR [4]: equivalent activity to the commercial anti-PD-L1; blocking the biotin-PD1 binding to PD-L1-coated wells (PD-1/PD-L1 interaction): equivalent activity to the commercial anti-PD-L1
iPDL1 (murine soluble PD-1 extracellular domain fused with IgG1 Fc) (Fc fusion, detection used anti-IgG2a-Fc / anti-mouse IgG; also called soluble PD-1-Fc; soluble PD-1-IgG Fc) LEVPNGPWRSLTFYPAWLTVSEGANATFTCSLSNWSEDLMLNWNRLSPSNQTEKQAAFCNGLSQPVQDARFQIIQLPNRHDFHMNILDTRRNDSGIYLCGAISLHPKAKIEESPGAELVVTERILETSTRYPSPSPKPEGRFQPRGPTIKPCPPCKCPAPNLLGGPSVFIFPPKIKDVLMISLSPIVTCVVVDVSEDDPDVQISWFVNNVEVHTAQTQTHREDYNSTLRVVSALPIQHQDWMSGKEFKCKVNNKDLPAPIERTISKPKGSVRAPQVYVLPPPEEEMTKKQVTLTCMVTDFMPEDIYVEWTNNGKTELNYKNTEPVLDSDGSYFMYSKLRVEKKNWVERNSYSCSVVHEGLHNHHTTKSFSRTPGK | – | – | IC50 [5]: 5.63 nM
iPDL1: murine soluble PD-1 extracellular domain fused with IgG1 Fc as a PD-L1 inhibitor, SEQ ID NO:2 (protein, Mouse) MWVRQVPWSFTWAVLQLSWQSGWLLEVPNGPWRSLTFYPAWLTVSEGANATFTCSLSNWSEDLMLNWNRLSPSNQTEKQAAFCNGLSQPVQDARFQIIQLPNRHDFHMNILDTRRNDSGIYLCGAISLHPKAKIEESPGAELVVTERILETSTRYPSPSPKPEGRFQPRGPTIKPCPPCKCPAPNLLGGPSVFIFPPKIKDVLMISLSPIVTCVVVDVSEDDPDVQISWFVNNVEVHTAQTQTHREDYNSTLRVVSALPIQHQDWMSGKEFKCKVNNKDLPAPIERTISKPKGSVRAPQVYVLPPPEEEMTKKQVTLTCMVTDFMPEDIYVEWTNNGKTELNYKNTEPVLDSDGSYFMYSKLRVEKKNWVERNSYSCSVVHEGLHNHHTTKSFSRTPGK | – | – | binding of purified protein to PD-L1+ tumor cells ([6]; 50 μg/mL, MC38 vs PD-L1-knocked down MC38, anti-IgG Fc staining): able to bind to PD-L1+ tumor cells, but not to PD-L1-knocked down tumor cells; binding of secreted iPDL1 to PD-L1 on tumor cells in cell culture ([6]; MC38 infected with VV-iPDL1/GM at MOI=0.5, anti-IgG Fc staining): bound to PD-L1 on the virus-infected (RFP positive) tumor cells, as well as uninfected (RFP negative) tumor cells; IFN-γ+ frequency of PD-1+ CD8+ T cells (PD-1+ CD8+ T cells): higher IFN-γ+ frequency of PD-1+ CD8+ T cells; binding of secreted iPDL1 to PD-L1 on CD45− cells in distant tumors (PD-L1 [7]): also bound to PD-L1 on CD45− cells in untreated, distant tumors
